# Reference: article PMC9706920, “Aryloxypropanolamine targets amyloid aggregates and reverses Alzheimer-like phenotypes in Alzheimer mouse models” (Alzheimer's Research & Therapy, 2022)
# Experiments:
# [1] = target: T1, recombinant tau K18 aggregates (Homo sapiens, UniProt P10636); test: ThT fluorescence tau K18 disaggregation assay; format: biochemical; conditions: K18 35 μM pre-aggregated 3 days, 50 and 500 μM compound for additional 3 days; concentration of the printed value not stated
# T1 construct: Recombinant tau K18 fragments, […]; made in house; host or cells: Escherichia coli BL21 (DE3)
# T1 sequence (P10636 561-689): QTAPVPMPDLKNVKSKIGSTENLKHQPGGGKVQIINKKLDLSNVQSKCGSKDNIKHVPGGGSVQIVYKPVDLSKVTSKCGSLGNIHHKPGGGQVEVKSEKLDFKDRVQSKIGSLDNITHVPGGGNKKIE
# Method: (§1) ThT fluorescence was used to assess the in vitro inhibition of Aβ(1–42) and disaggregation of Aβ(1–42), Aβ(1–40), Aβ(pE3-42), recombinant tau K18, and tau repeats R1, R2, R3, R4 by YIAD compounds. In house synthetic Aβ(1–42) was dissolved in DMSO (1 mM, 100% DMSO) and diluted to 20-fold in deionized water to make 50 μM Aβ(1–42) stocks (5% DMSO). YIAD compounds were first dissolved in DMSO (100 mM, 100% DMSO) and serially diluted with deionized water to make YIAD stocks with concentrations of 1, 10, 100, and 1000 μM (10% DMSO). For the Aβ(1–42) inhibition assay, monomeric Aβ(1–42) stocks and YIAD stocks were co-incubated at 37°C for 3 days. For Aβ(1–42) disaggregation assay, monomeric Aβ(1–42) stocks were preincubated at 37°C for three days to form Aβ(1–42) aggregates, and subsequently, YIAD stocks were added for an additional 3 days. For Aβ(1-40) disaggregation assays, Aβ(1–40) (50 μM, 5% DMSO) was preincubated at 37°C for 3 days to induce aggregation, and co-incubated with YIAD001 and YIAD002 for an additional 3 days. […] Prior to fluorescence intensity measurement, ThT solution (5 μM) was prepared by dissolving ThT, purchased from Sigma-Aldrich (MO, USA) in 50 mM glycine buffer (pH 8.5). To quantify the effect of inhibition and disaggregation, 25 μL of all samples and 75 μL of ThT solution were loaded into a half-area 96-well black plate in triplicate.
# [2] = tested on: 5XFAD mice; test: Dot blot assay (6E10, A11) of soluble brain lysates of 5XFAD mice, incl. MWCO filtration; format: in vivo, mouse; conditions: 50 mg/kg/day, 5 weeks; for Total Aβ (6E10) in cortical lysates after GdnHCl denaturation and 100 kDa MWCO filtration: APP removed
# Method: To test the in vivo efficacy of YIAD001 and YIAD002, female 5XFAD mice (n = 25) and female wildtype mice (n = 7) were assessed at the age of 4.5 months. YIAD compounds were dissolved in DMSO and diluted in drinking water to a final concentration of 50 mg/kg/day (5% DMSO, 5% Tween) for oral administration. The three compounds, YIAD001, YIAD002, and YIAD003, were freely administered via drinking water to 4.5-month-old 5XFAD mice (n = 6 for each group) for 5 weeks. As a control, 5% DMSO, 5% Tween in drinking water was provided ad libitum to littermate 5XFAD mice (n = 7) and wildtype mice (n = 7) for 5 weeks.
# After the administration period, the mice were deeply anaesthetized with 4% avertin through intraperitoneal injection and transcardially perfused with 0.9% saline. Subsequently, the mice were sacrificed for brain excision. Each collected brain was divided through the mid-sagittal section; the hippocampal and cortical regions were dissected from one half and stored at −80°C for subsequent brain lysates, while the other half was immersed in 4% paraformaldehyde (pH 7.4) for 24 h and 30% sucrose for 48 h at 4°C and subsequently deep-froze at −80°C for immunohistochemistry.
# Isolated cortical and hippocampal tissue samples were homogenized in ice-cold RIPA buffer with protease inhibitor cocktail and phosphatase inhibitor cocktail. Lysed tissues were incubated in ice for 30 min and subsequently centrifuged at 14,000 rpm at 4°C for 30 min. The supernatants of the brain lysates were collected and soluble protein concentrations were quantified with the Pierce BCA protein assay kit (Thermo Fisher Scientific, USA).
# (§2) To analyze total and oligomeric amyloid levels, protein samples (12 μg in 2 μL) and prepared in vitro disaggregation assay samples (2 μL) were directly blotted on nitrocellulose membranes. After blocking with 5% skim milk in TBS-T, the membranes were probed with anti-6E10 antibody (1:1,000, Biolegend 803003) and anti-A11 antibody (1:2000, Invitrogen AHB0052) at 4°C overnight. HRP-conjugated goat anti-mouse antibody (1:10,000, Bethyl Laboratories A90-116P) and anti-rabbit secondary antibody (1:10,000, Bethyl Laboratories A120-101P) were used for 6E10 and A11, respectively. Proteins were detected using an ECL kit (Thermo Fisher Scientific, USA). Membranes were washed with TBS-T in between steps, three times for 10 min.
# To exclusively investigate soluble Aβ levels in cortical lysates, guanidinium hydrochloride (GdnHCl) in a lysis buffer (5.0 M GdnHCl, 50 mM Tris-HCl, pH 8.0) was utilized to solubilize and denature endogenous Aβ aggregates prior to filtration. The homogenates were incubated with agitation for 3 h at RT. The incubated samples were then quantified to prepare protein samples (10 μg in 4 μL) and were filtered through a 100 kDa molecular weight cut-off (MWCO) filter, centrifuged at 14,000 rpm at RT for 30 min, to remove APP. For subsequent dot blot assay, total […] of the filtrate was spotted onto a nitrocellulose membrane and probed with anti-6E10 antibody (1:1000, Biolegend 803003).
# [3] = target: T2, Aβ(1–42) aggregates (Homo sapiens, UniProt P05067); test: In vitro dot blot assay with oligomer-specific antibody A11; format: biochemical; conditions: Aβ(1–42) disaggregation samples, Fig. S1
# T2 construct: made in house; host or cells: chemical synthesis (Fmoc solid phase peptide synthesis)
# T2 sequence (P05067 672-713 limits assumed): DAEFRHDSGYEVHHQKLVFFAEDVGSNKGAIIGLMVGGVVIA
# Method: as §2
# [4] = target: T2, Aβ(1–42) aggregates; test: ThT fluorescence Aβ(1–42) disaggregation assay; format: biochemical; conditions: for Decrease of fibrillar Aβ(1–42) aggregates (ThT fluorescence): Aβ(1–42) 25 μM pre-aggregated 37°C 3 days, compound added for additional 3 days, concentration of the printed value not stated; for EC50: pre-aggregated Aβ(1–42) 25 μM, 3 + 3 days, 37°C
# Method: ThT fluorescence was used to assess the in vitro inhibition of Aβ(1–42) and disaggregation of Aβ(1–42), Aβ(1–40), Aβ(pE3-42), recombinant tau K18, and tau repeats R1, R2, R3, R4 by YIAD compounds. In house synthetic Aβ(1–42) was dissolved in DMSO (1 mM, 100% DMSO) and diluted to 20-fold in deionized water to make 50 μM Aβ(1–42) stocks (5% DMSO). YIAD compounds were first dissolved in DMSO (100 mM, 100% DMSO) and serially diluted with deionized water to make YIAD stocks with concentrations of 1, 10, 100, and 1000 μM (10% DMSO). For the Aβ(1–42) inhibition assay, monomeric Aβ(1–42) stocks and YIAD stocks were co-incubated at 37°C for 3 days. For Aβ(1–42) disaggregation assay, monomeric Aβ(1–42) stocks were preincubated at 37°C for three days to form Aβ(1–42) aggregates, and subsequently, YIAD stocks were added for an additional 3 days. For Aβ(1-40) disaggregation assays, Aβ(1–40) (50 μM, 5% DMSO) was preincubated at 37°C for 3 days to induce aggregation, and co-incubated with YIAD001 and YIAD002 for an additional 3 days. For Aβ(pE3-42) disaggregation assays, in house synthetic Aβ(pE3-42) (50 μM, 5% DMSO) was preincubated at 37°C for 1 day and co-incubated with YIAD002 for an additional 3 days. For tau K18 disaggregation assay, recombinant tau K18 fragments (35 μM) were dissolved in PBS with 0.1 mg/mL of heparin and 100 μM of DTT, then pre-aggregated at 37°C for 3 days. Then, YIAD stocks were added to aggregated K18 fragments for an additional 3 days. For tau repeat disaggregation assays, tau repeats (R1, R2, R3, R4) (35 μM) were dissolved in PBS with 0.1 mg/mL of heparin and 100 μM of DTT, then pre-aggregated at 37°C for 1 day. Then, YIAD002 was added to aggregated repeats for an additional 3 days. Prior to fluorescence intensity measurement, ThT solution (5 μM) was prepared by dissolving ThT, purchased from Sigma-Aldrich (MO, USA) in 50 mM glycine buffer (pH 8.5). To quantify the effect of inhibition and disaggregation, 25 μL of all samples and 75 μL of ThT solution were loaded into a half-area 96-well black plate in triplicate.
# [5] = target: T3, Aβ(1–40) aggregates (Homo sapiens, UniProt P05067); test: ThT fluorescence Aβ(1–40) disaggregation assay; format: biochemical; conditions: 500 μM compound, Aβ(1–40) 25 μM pre-aggregated 3 days, co-incubated additional 3 days
# T3 construct: Aβ(1–40), […]; […]; made in house; host or cells: chemical synthesis (Fmoc solid phase peptide synthesis)
# T3 sequence (P05067 672-711): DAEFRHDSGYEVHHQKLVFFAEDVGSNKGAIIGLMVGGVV
# Method: as §1
smiles,measurement,setting,value
"CCC(C)(C)c1ccc(OCC(O)CN2CCOCC2)c(C(C)(C)CC)c1.Cl (stereo not shown) [YIAD001, 4-(3-(2,4-Di-tert-pentylphenoxy)-2-hydroxypropyl)morpholin-4-ium chloride]","Reduction of K18 aggregates (disaggregation, ThT)",[1],18.06%
same,Total Aβ (6E10) in cortical lysates after GdnHCl denaturation and 100 kDa MWCO filtration,[2],reduction of Aβ
same,"6E10-detected total Aβ, cortical lysates",[2]; soluble fraction,significantly reduced
same,"6E10-detected total Aβ, hippocampus",[2]; soluble fraction,not significantly changed
same,"A11-detected oligomer levels, cortical lysates",[2]; soluble fraction,trend of reduction
same,"A11-detected amyloid oligomers, in vitro disaggregation",[3],dissociate Aβ(1–42) aggregates
same,Decrease of fibrillar Aβ(1–42) aggregates (ThT fluorescence),[4],82.61%
same,EC50,[4],91.8 µM
same,Decrease of Aβ(1–40) aggregates (ThT fluorescence),[5],58.98%
"CCC(C)(C)c1ccc(OCC(O)CN2CCCC2)c(C(C)(C)CC)c1.Cl (stereo not shown) [YIAD002, 1-(3-(2,4-Di-tert-pentylphenoxy)-2-hydroxypropyl)pyrrolidin-1-ium chloride]","Reduction of K18 aggregates (disaggregation, ThT)",[1],58.96%
same,Total Aβ (6E10) in cortical lysates after GdnHCl denaturation and 100 kDa MWCO filtration,[2],reduction of Aβ
same,"6E10-detected total Aβ, cortical lysates",[2]; soluble fraction,significantly reduced
same,"6E10-detected total Aβ, hippocampus",[2]; soluble fraction,not significantly changed
same,"A11-detected oligomer levels, cortical lysates",[2]; soluble fraction,trend of reduction
same,"Oligomeric Aβ content (A11), hippocampus",[2]; soluble fraction,significantly reduced
same,"A11-detected amyloid oligomers, in vitro disaggregation",[3],dissociate Aβ(1–42) aggregates
same,Decrease of fibrillar Aβ(1–42) aggregates (ThT fluorescence),[4],99.94%
same,EC50,[4],16.9 µM
same,Decrease of Aβ(1–40) aggregates (ThT fluorescence),[5],83.35%
